molecular target: SARS-CoV-2 3CL protease (Severe acute respiratory syndrome coronavirus 2 (2019-nCoV) (SARS-CoV-2), UniProt P0DTD1); assay: SARS-CoV-2 Coronavirus 3C Protease FRET Assay; type: biochemical; details: FRET assay control inhibitor

| SMILES | inhibition of SARS-CoV-2 3CLpro (fluorescent signal reduced) |
| --- | --- |
| COc1cccc2[nH]c(C(=O)N[C@@H](CC(C)C)C(=O)N[C@@H](C[C@@H]3CCNC3=O)C(=O)CO)cc12 [PF-835231, reference compound] | potent inhibitor |

same assay, conditions: read-out: 3CL Protease Geometric Mean Ki

| SMILES | Ki [nM] |
| --- | --- |
| COc1cccc2[nH]c(C(=O)N[C@@H](CC(C)C)C(=O)N[C@@H](C[C@@H]3CCNC3=O)C(=O)COC(=O)c3ccc(F)cc3)cc12 [Example 5, (3S)-3-({N-[(4-methoxy-1H-indol-2-yl)carbonyl]-L-leucyl}amino)-2-oxo-4-[(3S)-2-oxopyrrolidin-3-yl]butyl 4-fluorobenzoate] | 16.3 |
| COc1cccc2[nH]c(C(=O)N[C@@H](CC(C)C)C(=O)N[C@@H](C[C@@H]3CCNC3=O)C(=O)COC(=O)C(C)(C)C)cc12 [Example 2, (3S)-3-({N-[(4-methoxy-1H-indol-2-yl)carbonyl]-L-leucyl}amino)-2-oxo-4-[(3S)-2-oxopyrrolidin-3-yl]butyl pivalate] | 94.1 |
| COc1cccc2[nH]c(C(=O)N[C@@H](CC(C)C)C(=O)N[C@@H](C[C@@H]3CCNC3=O)C(=O)COC(C)=O)cc12 [Example 1, (3S)-3-({N-[(4-methoxy-1H-indol-2-yl)carbonyl]-L-leucyl}amino)-2-oxo-4-[(3S)-2-oxopyrrolidin-3-yl]butyl acetate] | 19.4 |
| COc1cccc2[nH]c(C(=O)N[C@@H](CC(C)C)C(=O)N[C@@H](C[C@@H]3CCNC3=O)C(=O)COC(=O)c3c(C)cccc3C)cc12 [Example 10, (3S)-3-({N-[(4-methoxy-1H-indol-2-yl)carbonyl]-L-leucyl}amino)-2-oxo-4-[(3S)-2-oxopyrrolidin-3-yl]butyl 2,6-dimethylbenzoate] | 3.4 |
| COc1cccc2[nH]c(C(=O)N[C@@H](CC(C)C)C(=O)N[C@@H](C[C@@H]3CCNC3=O)C(=O)COC(=O)c3c(F)cccc3F)cc12 [Example 11, (3S)-3-({N-[(4-methoxy-1H-Indol-2-yl)carbonyl]-L-leucyl}amino)-2-oxo-4-[(3S)-2-oxopyrrolidin-3-yl]butyl 2,6-difluorobenzoate] | 1.3 |
| COc1cccc2[nH]c(C(=O)N[C@@H](CC(C)C)C(=O)N[C@@H](C[C@@H]3CCNC3=O)C(=O)COC(=O)c3ccc(C#N)cc3F)cc12 [Example 14, (3S)-3-({N-[(4-methoxy-1H-indol-2-yl)carbonyl]-L-leucyl}amino)-2-oxo-4-[(3S)-2-oxopyrrolidin-3-yl]butyl 4-cyano-2-fluorobenzoate] | 0.2 |
| COc1cccc2[nH]c(C(=O)N[C@@H](CC(C)C)C(=O)N[C@@H](C[C@@H]3CCNC3=O)C(=O)COC(=O)c3ccc(C)cc3)cc12 [Example 4, (3S)-3-({N-[(4-methoxy-1H-indol-2-yl)carbonyl]-L-leucyl}amino)-2-oxo-4-[(3S)-2-oxopyrrolidin-3-yl]butyl 4-methylbenzoate] | 17.7 |
| COc1cccc(OC)c1C(=O)OCC(=O)[C@H](C[C@@H]1CCNC1=O)NC(=O)[C@H](CC(C)C)NC(=O)c1cc2c(OC)cccc2[nH]1 [Example 12, (3S)-3-({N-[(4-methoxy-1H-indol-2-yl)carbonyl]-L-leucyl}amino)-2-oxo-4-[(3S)-2-oxopyrrolidin-3-yl]butyl 2,6-dimethoxybenzoate] | 15.7 |
| COc1cccc2[nH]c(C(=O)N[C@@H](CC(C)C)C(=O)N[C@@H](C[C@@H]3CCNC3=O)C(=O)COC(=O)c3ccc(Cl)cc3)cc12 [Example 8, (3S)-3-({N-[(4-methoxy-1H-indol-2-yl)carbonyl]-L-leucyl}amino)-2-oxo-4-[(3S)-2-oxopyrrolidin-3-yl]butyl 4-chlorobenzoate] | 18.8 |
| COc1cccc2[nH]c(C(=O)N[C@@H](CC(C)C)C(=O)N[C@@H](C[C@@H]3CCNC3=O)C(=O)COC(=O)c3ccc(C#N)cc3)cc12 [Example 6, (3S)-3-({N-[(4-methoxy-1H-indol-2-yl)carbonyl]-L-leucyl}amino)-2-oxo-4-[(3S)-2-oxopyrrolidin-3-yl]butyl 4-cyanobenzoate] | 1.9 |
| COc1cccc2[nH]c(C(=O)N[C@@H](CC(C)C)C(=O)N[C@@H](C[C@@H]3CCNC3=O)C(=O)COC(=O)c3ccccc3)cc12 [Example 3, (3S)-3-({N-[(4-methoxy-1H-indol-2-yl)carbonyl]-L-leucyl}amino)-2-oxo-4-[(3S)-2-oxopyrrolidin-3-yl]butyl benzoate] | 233 |
| COc1cccc2[nH]c(C(=O)N[C@@H](CC(C)C)C(=O)N[C@@H](C[C@@H]3CCNC3=O)C(=O)COC(=O)c3ccccc3C#N)cc12 [Example 15, (3S)-3-({N-[(4-methoxy-1H-indol-2-yl)carbonyl]-L-leucyl}amino)-2-oxo-4-[(3S)-2-oxopyrrolidin-3-yl]butyl 2-cyanobenzoate] | 0.4 |
| COc1cccc2[nH]c(C(=O)N[C@@H](CC(C)C)C(=O)N[C@@H](C[C@@H]3CCNC3=O)C(=O)COC(=O)c3c(Cl)cccc3Cl)cc12 [Example 9, (3S)-3-({N-[(4-methoxy-1H-indol-2-yl)carbonyl]-L-leucyl}amino)-2-oxo-4-[(3S)-2-oxopyrrolidin-3-yl]butyl 2,6-dichlorobenzoate] | 0.3 |
| COc1ccc(C(=O)OCC(=O)[C@H](C[C@@H]2CCNC2=O)NC(=O)[C@H](CC(C)C)NC(=O)c2cc3c(OC)cccc3[nH]2)cc1 [Example 7, (3S)-3-({N-[(4-methoxy-1H-indol-2-yl)carbonyl]-L-leucyl}amino)-2-oxo-4-[(3S)-2-oxopyrrolidin-3-yl]butyl 4-methoxybenzoate] | 33.4 |
